What was measured:
Type in all cases: in vivo
Hordeum vulgare (HORVW) [1] = assay: Pre-emergence herbicidal evaluation, winter barley
How it was run: (§1)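 Seeds are mixed into potting soil and planted; the pots are sprayed with aqueous acetone containing compound (about 0.0125 to 0.4 kg/ha equivalent); they are kept and watered in a greenhouse; each pot is rated at 2 to 4 weeks.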

Oryza sativum (ORYSA) [2] = assay: Pre-emergence herbicidal evaluation, rice
How it was run: as §1

[3] = tested on: Triticum aestivum (TRZAW); assay: Pre-emergence herbicidal evaluation, winter wheat
How it was run: as §1

[4] = tested on: Abutilon theophrasti (ABUTH); assay: Pre-emergence herbicidal evaluation, velvetleaf
How it was run: as §1

[5] = tested on: Ambrosia artemiisifolia (AMBEL); assay: Pre-emergence herbicidal evaluation, ragweed
How it was run: as §1

Galium aparine (GALAP) [6] = assay: Pre-emergence herbicidal evaluation, cleaver
How it was run: as §1

[7] = tested on: Ipomoea hederacea (IPOHE); assay: Pre-emergence herbicidal evaluation, morning glory
How it was run: as §1

Lamium purpureum (LAMPU) = assay: Pre-emergence herbicidal evaluation, purple deadnettle
How it was run: as §1

[8] = tested on: Matricaria inodora (MATIN); assay: Pre-emergence herbicidal evaluation, mayweed
How it was run: as §1

Stellaria media (STEME) = assay: Pre-emergence herbicidal evaluation, chickweed
How it was run: as §1

[9] = tested on: Alopecurus myosuroides (ALOMY); assay: Pre-emergence herbicidal evaluation, black grass
How it was run: as §1

[10] = tested on: Echinochloa grus galli (ECHCG); assay: Pre-emergence herbicidal evaluation, barnyard grass
How it was run: as §1

Setaria viridis (SETVI) [11] = assay: Pre-emergence herbicidal evaluation, green foxtail
How it was run: as §1

Glycine max (GLXMA) = assay: Post-emergence herbicidal evaluation, soyabeans; details: rated 2 to 4 weeks after treatment
Procedure: [table] [table] […] These acetone solutions are diluted with water and the resulting formulations applied at dosage levels equivalent of about 0.03 to 0.4 kg per hectare of test compound per pot. After spraying the plants are placed on greenhouse benches and are cared for in the usual manner, commensurate with conventional greenhouse practices. From 2 to 4 weeks after treatment, the seedling plants are examined and rated according to the rating system provided above. A rating 0 indicates growth as untreated control, a rating 9 indicates death.

Hordeum vulgare (HORVW) [12] = assay: Post-emergence herbicidal evaluation, winter barley; details: rated 2 to 4 weeks after treatment
How it was run: (§2)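 Post-emergence spray; acetone stock diluted in water; dose ≈0.03–0.4 kg/ha per pot; greenhouse, routine care; visual score at 2–4 wk, 0 = untreated-like, 9 = dead.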

Oryza sativum (ORYSA) [13] = assay: Post-emergence herbicidal evaluation, rice; details: rated 2 to 4 weeks after treatment
How it was run: as §2

[14] = tested on: Triticum aestivum (TRZAW); assay: Post-emergence herbicidal evaluation, winter wheat; details: rated 2 to 4 weeks after treatment
How it was run: as §2

Zea mays (ZEAMX) = assay: Post-emergence herbicidal evaluation, maize; details: rated 2 to 4 weeks after treatment
How it was run: as §2

[15] = tested on: Abutilon theophrasti (ABUTH); assay: Post-emergence herbicidal evaluation, velvetleaf; details: rated 2 to 4 weeks after treatment
How it was run: as §2

[16] = tested on: Ambrosia artemiisifolia (AMBEL); assay: Post-emergence herbicidal evaluation, ragweed; details: rated 2 to 4 weeks after treatment
How it was run: as §2

Galium aparine (GALAP) [17] = assay: Post-emergence herbicidal evaluation, cleaver; details: rated 2 to 4 weeks after treatment
How it was run: as §2

[18] = tested on: Ipomoea hederacea (IPOHE); assay: Post-emergence herbicidal evaluation, morning glory; details: rated 2 to 4 weeks after treatment
How it was run: as §2

[19] = tested on: Matricaria inodora (MATIN); assay: Post-emergence herbicidal evaluation, mayweed; details: rated 2 to 4 weeks after treatment
How it was run: as §2

[20] = tested on: Alopecurus myosuroides (ALOMY); assay: Post-emergence herbicidal evaluation, black grass; details: rated 2 to 4 weeks after treatment
How it was run: as §2

[21] = tested on: Echinochloa grus galli (ECHCG); assay: Post-emergence herbicidal evaluation, barnyard grass; details: rated 2 to 4 weeks after treatment
How it was run: as §2

Setaria viridis (SETVI) [22] = assay: Post-emergence herbicidal evaluation, green foxtail; details: rated 2 to 4 weeks after treatment
How it was run: as §2

## Cc1cc(OC/C=C/C(F)(F)F)nc(Oc2cc(C(F)(F)F)nn2C)c1 [Example 1, (E)-2-(1-Methyl-3-trifluoromethylpyrazol-5-yloxy)-4-methyl-6-(4,4,4-trifluorobut-2-enyloxy)pyridine]
Hordeum vulgare (HORVW) [1]; dose 0.013 kg/ha
  HORVW rating: 1 (1 - Trace effect)
Hordeum vulgare (HORVW) [1]; dose 0.025 kg/ha
  HORVW rating: 2 (2 - Slight effect)
Hordeum vulgare (HORVW) [1]; dose 0.1 kg/ha
  HORVW rating: 5 (5 - Definite injury)
Hordeum vulgare (HORVW) [1]; dose 0.4 kg/ha
  HORVW rating: 5 (5 - Definite injury)
Oryza sativum (ORYSA) [2]; dose 0.013 kg/ha
  ORYSA rating: 2 (2 - Slight effect)
Oryza sativum (ORYSA) [2]; dose 0.025 kg/ha
  ORYSA rating: 2 (2 - Slight effect)
Oryza sativum (ORYSA) [2]; dose 0.1 kg/ha
  ORYSA rating: 4 (4 - Injury)
Oryza sativum (ORYSA) [2]; dose 0.4 kg/ha
  ORYSA rating: 5 (5 - Definite injury)
[3]; dose 0.013 kg/ha
  TRZAW rating: 1 (1 - Trace effect)
[3]; dose 0.025 kg/ha
  TRZAW rating: 1 (1 - Trace effect)
[3]; dose 0.1 kg/ha
  TRZAW rating: 3 (3 - Moderate effect)
[3]; dose 0.4 kg/ha
  TRZAW rating: 4 (4 - Injury)
[4]
  activity against Abutilon: superior activity
[4]; dose 0.013 kg/ha
  ABUTH rating: 7 (7 - Good herbicidal effect)
[4]; dose 0.025 kg/ha
  ABUTH rating: 7 (7 - Good herbicidal effect)
[4]; dose 0.1 kg/ha
  ABUTH rating: 8 (8 - Approaching complete kill)
[4]; dose 0.4 kg/ha
  ABUTH rating: 9 (9 - Complete kill)
[5]; dose 0.013 kg/ha
  AMBEL rating: 5 (5 - Definite injury)
[5]; dose 0.025 kg/ha
  AMBEL rating: 9 (9 - Complete kill)
[5]; dose 0.1 kg/ha
  AMBEL rating: 9 (9 - Complete kill)
[5]; dose 0.4 kg/ha
  AMBEL rating: 9 (9 - Complete kill)
Galium aparine (GALAP) [6]; dose 0.013 kg/ha
  GALAP rating: 1 (1 - Trace effect)
Galium aparine (GALAP) [6]; dose 0.025 kg/ha
  GALAP rating: 2 (2 - Slight effect)
Galium aparine (GALAP) [6]; dose 0.1 kg/ha
  GALAP rating: 7 (7 - Good herbicidal effect)
Galium aparine (GALAP) [6]; dose 0.4 kg/ha
  GALAP rating: 9 (9 - Complete kill)
[7]; dose 0.013 kg/ha
  IPOHE rating: 2 (2 - Slight effect)
[7]; dose 0.025 kg/ha
  IPOHE rating: 5 (5 - Definite injury)
[7]; dose 0.1 kg/ha
  IPOHE rating: 7 (7 - Good herbicidal effect)
[7]; dose 0.4 kg/ha
  IPOHE rating: 9 (9 - Complete kill)
Lamium purpureum (LAMPU); dose 0.013 kg/ha
  LAMPU rating: 8 (8 - Approaching complete kill)
Lamium purpureum (LAMPU); dose 0.025 kg/ha
  LAMPU rating: 9 (9 - Complete kill)
Lamium purpureum (LAMPU); dose 0.1 kg/ha
  LAMPU rating: 9 (9 - Complete kill)
Lamium purpureum (LAMPU); dose 0.4 kg/ha
  LAMPU rating: 9 (9 - Complete kill)
[8]; dose 0.013 kg/ha
  MATIN rating: 8 (8 - Approaching complete kill)
[8]; dose 0.025 kg/ha
  MATIN rating: 9 (9 - Complete kill)
[8]; dose 0.1 kg/ha
  MATIN rating: 9 (9 - Complete kill)
[8]; dose 0.4 kg/ha
  MATIN rating: 9 (9 - Complete kill)
Stellaria media (STEME)
  activity against Stellaria: superior activity
Stellaria media (STEME); dose 0.013 kg/ha
  STEME rating: 5 (5 - Definite injury)
Stellaria media (STEME); dose 0.025 kg/ha
  STEME rating: 9 (9 - Complete kill)
Stellaria media (STEME); dose 0.1 kg/ha
  STEME rating: 9 (9 - Complete kill)
Stellaria media (STEME); dose 0.4 kg/ha
  STEME rating: 9 (9 - Complete kill)
[9]; dose 0.013 kg/ha
  ALOMY rating: 4 (4 - Injury)
[9]; dose 0.025 kg/ha
  ALOMY rating: 6 (6 - Herbicidal effect)
[9]; dose 0.1 kg/ha
  ALOMY rating: 8 (8 - Approaching complete kill)
[9]; dose 0.4 kg/ha
  ALOMY rating: 9 (9 - Complete kill)
[10]; dose 0.013 kg/ha
  ECHCG rating: 3 (3 - Moderate effect)
[10]; dose 0.025 kg/ha
  ECHCG rating: 5 (5 - Definite injury)
[10]; dose 0.1 kg/ha
  ECHCG rating: 7 (7 - Good herbicidal effect)
[10]; dose 0.4 kg/ha
  ECHCG rating: 9 (9 - Complete kill)
Setaria viridis (SETVI) [11]
  activity against Setaria: superior activity
Setaria viridis (SETVI) [11]; dose 0.013 kg/ha
  SETVI rating: 9 (9 - Complete kill)
Setaria viridis (SETVI) [11]; dose 0.025 kg/ha
  SETVI rating: 9 (9 - Complete kill)
Setaria viridis (SETVI) [11]; dose 0.1 kg/ha
  SETVI rating: 9 (9 - Complete kill)
Setaria viridis (SETVI) [11]; dose 0.4 kg/ha
  SETVI rating: 9 (9 - Complete kill)
Glycine max (GLXMA); dose 0.03 kg/ha
  GLXMA rating: 6 (6 - Herbicidal effect)
Glycine max (GLXMA); dose 0.1 kg/ha
  GLXMA rating: 8 (8 - Approaching complete kill)
Glycine max (GLXMA); dose 0.4 kg/ha
  GLXMA rating: 8 (8 - Approaching complete kill)
Hordeum vulgare (HORVW) [12]; dose 0.03 kg/ha
  HORVW rating: 3 (3 - Moderate effect)
Hordeum vulgare (HORVW) [12]; dose 0.1 kg/ha
  HORVW rating: 5 (5 - Definite injury)
Hordeum vulgare (HORVW) [12]; dose 0.4 kg/ha
  HORVW rating: 5 (5 - Definite injury)
Oryza sativum (ORYSA) [13]; dose 0.03 kg/ha
  ORYSA rating: 2 (2 - Slight effect)
Oryza sativum (ORYSA) [13]; dose 0.1 kg/ha
  ORYSA rating: 3 (3 - Moderate effect)
Oryza sativum (ORYSA) [13]; dose 0.4 kg/ha
  ORYSA rating: 5 (5 - Definite injury)
[14]; dose 0.03 kg/ha
  TRZAW rating: 2 (2 - Slight effect)
[14]; dose 0.1 kg/ha
  TRZAW rating: 3 (3 - Moderate effect)
[14]; dose 0.4 kg/ha
  TRZAW rating: 5 (5 - Definite injury)
Zea mays (ZEAMX); dose 0.03 kg/ha
  ZEAMX rating: 2 (2 - Slight effect)
Zea mays (ZEAMX); dose 0.1 kg/ha
  ZEAMX rating: 5 (5 - Definite injury)
Zea mays (ZEAMX); dose 0.4 kg/ha
  ZEAMX rating: 6 (6 - Herbicidal effect)
[15]; dose 0.03 kg/ha
  ABUTH rating: 8 (8 - Approaching complete kill)
[15]; dose 0.1 kg/ha
  ABUTH rating: 8 (8 - Approaching complete kill)
[15]; dose 0.4 kg/ha
  ABUTH rating: 8 (8 - Approaching complete kill)
[16]; dose 0.03 kg/ha
  AMBEL rating: 6 (6 - Herbicidal effect)
[16]; dose 0.1 kg/ha
  AMBEL rating: 7 (7 - Good herbicidal effect)
[16]; dose 0.4 kg/ha
  AMBEL rating: 7 (7 - Good herbicidal effect)
Galium aparine (GALAP) [17]; dose 0.03 kg/ha
  GALAP rating: 7 (7 - Good herbicidal effect)
Galium aparine (GALAP) [17]; dose 0.1 kg/ha
  GALAP rating: 8 (8 - Approaching complete kill)
Galium aparine (GALAP) [17]; dose 0.4 kg/ha
  GALAP rating: 8 (8 - Approaching complete kill)
[18]; dose 0.03 kg/ha
  IPOHE rating: 9 (9 - Complete kill)
[18]; dose 0.1 kg/ha
  IPOHE rating: 9 (9 - Complete kill)
[18]; dose 0.4 kg/ha
  IPOHE rating: 9 (9 - Complete kill)
[19]; dose 0.03 kg/ha
  MATIN rating: 8 (8 - Approaching complete kill)
[19]; dose 0.1 kg/ha
  MATIN rating: 8 (8 - Approaching complete kill)
[19]; dose 0.4 kg/ha
  MATIN rating: 8 (8 - Approaching complete kill)
[20]; dose 0.03 kg/ha
  ALOMY rating: 6 (6 - Herbicidal effect)
[20]; dose 0.1 kg/ha
  ALOMY rating: 8 (8 - Approaching complete kill)
[20]; dose 0.4 kg/ha
  ALOMY rating: 8 (8 - Approaching complete kill)
[21]; dose 0.03 kg/ha
  ECHCG rating: 5 (5 - Definite injury)
[21]; dose 0.1 kg/ha
  ECHCG rating: 8 (8 - Approaching complete kill)
[21]; dose 0.4 kg/ha
  ECHCG rating: 8 (8 - Approaching complete kill)
Setaria viridis (SETVI) [22]; dose 0.03 kg/ha
  SETVI rating: 5 (5 - Definite injury)
Setaria viridis (SETVI) [22]; dose 0.1 kg/ha
  SETVI rating: 8 (8 - Approaching complete kill)
Setaria viridis (SETVI) [22]; dose 0.4 kg/ha
  SETVI rating: 8 (8 - Approaching complete kill)
